Measured values published in patent publication US8318446B2, “DNA-damage-induced proteolysis” (California Institute of Technology, priority 2008, dated 2012).

Key:
Bcl-xL = Bcl-xL level in extracts of MESC2.10 neurons, Western blotting; format: cell-based, human; details: MESC2.10 neurons, etoposide 6 hours
Description: FIG. 6A is a western blot showing the expression of Bcl-XL. Extracts of control and etoposide-treated MESC2.10 neurons were examined for Bcl-xL by Western blotting. […] Fold changes were normalized to the intensity of loading control, and compared to that of untreated control neurons (lane 5).

IKKα [1] = test: IKKα protein level in MESC2.10 neurons, western blot; format: cell-based, human
Description: Lysates were first treated with a combination of anti-IKKβ and IKKγ antibodies coupled to agarose beads to deplete IKKγ/IKKβ/IKKα complex. […] Fold changes of IKK activity were quantified by measuring the band intensity using Image J, and compared to non-treated neurons.
FIG. 3C is a western blot showing IKKα levels in the control and IKKα-expressing neurons. MESC2.10 neuroblasts were transduced with an IKKα recombinant lentivirus and differentiated as described below. EGFP lentivirus was used as a control.
IKKα was cloned into the lentiviral FUGW vector under the control of a ubiquitin promoter. An EGFP-lentivirus was used as a control. The Bcl-xL cDNA was cloned from MESC2.10 neurons by RT-PCR using standard procedures and its identity confirmed by sequencing. The cDNA was subsequently inserted into FUGW lentiviral vector. The shRNAs for IKKβ were cloned in a lentiviral backbone. Lentiviruses were produced by transfection of 293 cells using calcium phosphate precipitation. Supernatants of virus-producing cells were harvested 48 hr post-transfection and concentrated on Amicon Ultra columns. An EGFP virus was used as a control to monitor viral titer. A multiplicity of infection of 4:1 was used to infect MESC2.10 neuroblasts. Expression of IKKα, Bcl-xL and reduction of IKKβ were determined by Western blotting.

p53 = test: Nuclear p53 in MESC2.10 neurons, western blotting; format: cell-based, human; details: etoposide
Description: Nuclear extracts from MESC2.10 neurons were examined for the presence p53 by western blotting. Lanes 1-4 are nuclear extracts from MESC2.10 neurons with EGFP and lanes 5-8 are from neurons that were transduced with IKKα lentiviruses (FIG. 3C). Staining with anti-lamin B1 was used to ensure equal loading (bottom panel).

[2] = test system: full-length, mutant Htt protein; test: Etoposide-induced proteolysis of mutant Htt in striatal Hdh^Q111/Q111 neurons; format: cell-based, mouse; details: 10 μM etoposide for 6 hours
Description: Processing of samples was as described in FIG. 3A. […] IKKγ was used as loading control.

p65 NF-κB = p65 NF-κB binding to consensus DNA oligonucleotides, nuclear extracts of MESC2.10 neurons; format: cell-based, human; details: etoposide
Protocol: Lanes 1-4 show p65 binding from nuclear extracts of control and lanes 5-8 show p65 binding from neurons transduced with a lentivirus expressing IKKα (FIG. 3C).
Wells with mutated NF-κB DNA oligonucleotides were used to ensure specificity of the binding (column 4).
Nuclear extracts for control or etoposide-treated MESC2.10 neurons were obtained using the cell fractionation kit from pierce according to the instructions provided. Fifty μg of each nuclear extract was incubated for an hour at room temperature on 96 well plates coated with consensus NF-κB oligonucleotides (p65 or p52). Mutated NF-κB oligonucleotides were used to confirm binding specificity. For competition assays, nuclear extracts were pre-incubated with NF-κB oligonucleotides for 1 hour on ice and then added to the coated wells. After washing, each well was incubated with anti-p65 or anti-p52 antibodies for 30 min at 37° C. Wells were washed, followed by incubation with a secondary antibody conjugated to HRP. TMB (3,3′,5,5′-tetramethylbenzidine) was added for 10 min. Binding was measured in a microplate reader at 655 nm.

caspase-6 [3] = format: cell-based, human; details: etoposide 6 hrs; VEID-p-nitroanaline substrate; sodium salicylate 5 mg/ml 1 hour prior
caspase-6 [4] = target: T1, caspase-6 (Homo sapiens, UniProt P55212); format: cell-based; details: MESC2.10 neurons, 6 hrs of etoposide treatment, western blot
T1 construct: endogenous in cells; host or cells: differentiated MESC2.10 human neurons (lysates)
T1 sequence (P55212 1-293): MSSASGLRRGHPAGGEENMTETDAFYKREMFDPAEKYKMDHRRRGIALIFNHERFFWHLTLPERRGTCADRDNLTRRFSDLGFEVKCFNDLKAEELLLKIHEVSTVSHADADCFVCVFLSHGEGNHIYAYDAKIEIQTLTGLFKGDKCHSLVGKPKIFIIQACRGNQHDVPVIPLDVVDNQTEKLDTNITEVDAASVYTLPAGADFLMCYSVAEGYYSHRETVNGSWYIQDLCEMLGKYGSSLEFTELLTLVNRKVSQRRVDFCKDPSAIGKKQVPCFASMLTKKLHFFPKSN

endogenous Htt = test: Etoposide-induced Htt proteolysis in MESC2.10 neurons, Western blotting with anti-Htt mAb 2166; format: cell-based, human; details: MESC2.10 neurons
Description: Extracts were examined for Htt by Western blotting. […] Fold changes for full-length Htt levels were obtained by measuring the band intensity in each lane, normalized to tubulin and compared to non-treated control.
EGFP-lentivirus was used a control (C). […] Second and third panels show staining for Bcl-xL and pro-caspase-3, respectively. IKKγ levels were used as a loading control.
Neurons were harvested and separated into cytoplasmic and nuclear fractions using the NE-PER kit (PIERCE) according to instructions. For most experiments, ˜120 μg of lysate were used for SDS-PAGE and Western blotting with the indicated antibodies. Reactive bands in Western blots were detected by enhanced chemiluminescence (ECL) using a gel documentation system.

MESC2.10 neurons = test: BrdU incorporation (cell cycle activation) in MESC2.10 neurons; format: cell-based, human; details: Day 6 differentiated neurons, 10 μM etoposide 4 hours, BrdU 1 mM
Protocol: BrdU incorporation was detected described in M&M. Image was captured with a confocal microscope.
BrdU (1 mM) was added and incubated for additional 2 hours. Cells were fixed in 5% paraformaldehyde followed by permeabilization in 70% methanol in PBS at −20° C. overnight. To denature chromatin, coverslips were immersed in 2 N HCl for 30 minutes at 37° C. and neutralized in 0.1 M borate buffer (pH 8.5) by washing 2 times for 5 minutes. To detect BrdU incorporation, coverslips were incubated with Rat-anti-BrdU (1:200). Anti-Tuj-1 (1:1000) was used to stain neurons. Goat anti rat conjugated to rhodamine and goat anti-mouse conjugated to FITC (1:500) were used as secondary. Pictures were captured with a confocal microscope.

caspase-3 [5] = target: T2, caspase-3 (Homo sapiens, UniProt P42574); format: cell-based; details: MESC2.10 neurons, 6 hrs of etoposide treatment, western blot
T2 construct: Fifty μg of each lysate was incubated with either caspase-3 substrate (DEVD conjugated to p-nitroanaline); endogenous in cells; host or cells: differentiated MESC2.10 human neurons (lysates)
T2 sequence (P42574 1-277): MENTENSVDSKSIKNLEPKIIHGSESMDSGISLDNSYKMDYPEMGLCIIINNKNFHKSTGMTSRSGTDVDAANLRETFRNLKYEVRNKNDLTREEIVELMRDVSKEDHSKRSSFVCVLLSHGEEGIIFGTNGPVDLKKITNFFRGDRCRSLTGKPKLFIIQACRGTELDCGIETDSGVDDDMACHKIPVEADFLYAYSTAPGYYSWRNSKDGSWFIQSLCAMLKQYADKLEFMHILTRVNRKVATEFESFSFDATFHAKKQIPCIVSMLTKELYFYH

caspase-3 [6] = format: cell-based, human; details: etoposide 6 hrs; DEVD-p-nitroanaline substrate; sodium salicylate 5 mg/ml 1 hour prior
IKKα [7] = test: IKKα kinase assay on IKKα complexes devoid of IKKβ from MESC2.10 neurons; format: cell-based, human; details: longer treatment with 10 μM etoposide
Protocol: To determine IKKα activity, lyastes were first depleted of IKKβ complexes using 4 μg of anti-IKKγ and anti-IKKβ antibodies coupled to protein G. The depleted lysates were used to isolate IKKα complexes with 2 μg of anti-IKKα antibody. GST-IκBα was used as a substrate to measure kinase activity. To examine whether IKKs phosphorylate Bcl-xL, 0.5 μg of either IKKα or IKKβ were incubated with 1 μg of full-length Bcl-xL in the presence of 32P-γ-ATP for 30 min at 30° C. GST protein was used as a negative control. All kinase products were examined by SDS-PAGE and autoradiography.
To determine whether DNA damage influences IKKα activity, IKKα complexes devoid of IKKβ was obtained. Neuronal extracts were depleted by prior incubation with anti-IKKγ and anti-IKKβ antibodies, and IKKα complexes were subsequently immunoprecipitated.

COc1cc([C@@H]2c3cc4c(cc3[C@@H](O[C@@H]3O[C@@H]5CO[C@@H](C)O[C@H]5[C@H](O)[C@H]3O)[C@H]3COC(=O)[C@H]23)OCO4)cc(OC)c1O [etoposide]
level of intact Bcl-xL after etoposide (Bcl-xL): reduced | level of IKKα protein after etoposide treatment (IKKα [1]): decrease | nuclear p53 (p53): accumulates in the nucleus | cleavage of full-length mutant Htt caused by the agent [2]: promoted cleavage of full-length, mutant Htt protein | p65 NF-κB DNA binding activity (p65 NF-κB): activated p65 NF-κB DNA binding | caspase-6 activity in neuronal extracts (caspase-6 [3]): elevated | procaspase-6 level / activation (caspase-6 [4]): reduced | increase of the level of endogenous, full-length Htt (endogenous Htt; 10 μM etoposide, early time points): ~4 fold | time required for maximal Htt proteolysis (endogenous Htt; etoposide): ~6 h | proteolysis of endogenous Htt caused by the agent (endogenous Htt; longer exposure to 10 μM etoposide): induces proteolysis of endogenous Htt | cell cycle activation measured by BrdU incorporation (MESC2.10 neurons): promotes cell cycle activation | procaspase-3 level / activation (caspase-3 [5]): reduced | caspase-3 activity in neuronal extracts (caspase-3 [6]): elevated | IKKα kinase activity after etoposide treatment (IKKα [7]): reduces IKKα activity
